Measured values: patent publication US12403135B2, “4H-pyrrolo[3,2-c]pyridin-4-one derivatives” (Bayer Aktiengesellschaft, priority 2019, dated 2025)
Like-named read-outs stand apart in the source and are kept apart here.

What was measured:
Type in all cases: cell-based
[1] = tested on: Ba/F3-EGFR-delLREA cells (EGFR del19/delLREA (746-750), E746_A750del); assay: BA/F3 EGFR del19/delLREA (746-750) (E746_A750del) cell survival assay, Cell Titer-Glo
Procedure: (§1) Plates were incubated at 37° C. for 48 h. Retrovirus was harvested by filtering the media supernatant through a 0.45 μm filter.
(§2) Ba/F3 cells purchased from DSMZ were grown in RPMI+10% FBS+10 ng/mL IL-3 and infected with filtered retroviral supernatant at a 1:2 dilution. Polybrene was added to a concentration of 8 μg/mL, plates were spun for 90 min, and incubated overnight at 37° C. 2 μg/mL puromycin was added to the infected cells 24 h after infection and cells were continually grown in the presence of puromycin and 10 ng/mL IL-3. Following stably expressing Ba/F3 cell lines were generated: Ba/F3-EGFR-L858R, Ba/F3-EGFR-delLREA, (Ba/F3-vector-control).
(§3) For cell survival assays, Ba/F3 cells were grown to a density of 1-2 million cells per mL, spun down and resuspended in media without IL-3, and replated at a concentration 200,000-500,000 cells per mL. The cells ectopically expressing pBABEpuro empty vector were plated with 10 ng/mL IL-3.
(§4) 2 days later, cells were plated in 50 μL in a 384 well plate at a concentration of 4000 cells per well for cells assayed in the absence of IL-3 and 2000 cells per well for cells (pBABE puro empty vector) assayed in the presence of IL-3. 100 nL of compound was added to each well using a 100 nL pin head, and plates were incubated at 37° C. for 48 h.
(§5) Cell viability was measured by adding 20 μL of Cell Titer-Glo Luminescent Cell Viability Reagent diluted 1:3 in PBS. Plates were sealed with Perkin Elmer Top-Seal, inverted several times to mix, and immediately centrifuged at 1000 rpm for 2 min. Plates were incubated in low light conditions for 8-10 min and luminescence was measured.

[2] = biological target: Ba/F3-ERBB2-A775_G776insYVMA cells (Homo sapiens, UniProt P04626, DUP772-775, cells depend on it); assay: BA/F3 (ERBB2 A775_G776 insYVMA) proliferation; conditions: Table 12; read-out: BA/F3 (ERBB2 A775_G776 insYVMA) IC50
Ba/F3-ERBB2-A775_G776insYVMA cells, sequence (P04626 with tags, fused parts or gaps DUP772-775): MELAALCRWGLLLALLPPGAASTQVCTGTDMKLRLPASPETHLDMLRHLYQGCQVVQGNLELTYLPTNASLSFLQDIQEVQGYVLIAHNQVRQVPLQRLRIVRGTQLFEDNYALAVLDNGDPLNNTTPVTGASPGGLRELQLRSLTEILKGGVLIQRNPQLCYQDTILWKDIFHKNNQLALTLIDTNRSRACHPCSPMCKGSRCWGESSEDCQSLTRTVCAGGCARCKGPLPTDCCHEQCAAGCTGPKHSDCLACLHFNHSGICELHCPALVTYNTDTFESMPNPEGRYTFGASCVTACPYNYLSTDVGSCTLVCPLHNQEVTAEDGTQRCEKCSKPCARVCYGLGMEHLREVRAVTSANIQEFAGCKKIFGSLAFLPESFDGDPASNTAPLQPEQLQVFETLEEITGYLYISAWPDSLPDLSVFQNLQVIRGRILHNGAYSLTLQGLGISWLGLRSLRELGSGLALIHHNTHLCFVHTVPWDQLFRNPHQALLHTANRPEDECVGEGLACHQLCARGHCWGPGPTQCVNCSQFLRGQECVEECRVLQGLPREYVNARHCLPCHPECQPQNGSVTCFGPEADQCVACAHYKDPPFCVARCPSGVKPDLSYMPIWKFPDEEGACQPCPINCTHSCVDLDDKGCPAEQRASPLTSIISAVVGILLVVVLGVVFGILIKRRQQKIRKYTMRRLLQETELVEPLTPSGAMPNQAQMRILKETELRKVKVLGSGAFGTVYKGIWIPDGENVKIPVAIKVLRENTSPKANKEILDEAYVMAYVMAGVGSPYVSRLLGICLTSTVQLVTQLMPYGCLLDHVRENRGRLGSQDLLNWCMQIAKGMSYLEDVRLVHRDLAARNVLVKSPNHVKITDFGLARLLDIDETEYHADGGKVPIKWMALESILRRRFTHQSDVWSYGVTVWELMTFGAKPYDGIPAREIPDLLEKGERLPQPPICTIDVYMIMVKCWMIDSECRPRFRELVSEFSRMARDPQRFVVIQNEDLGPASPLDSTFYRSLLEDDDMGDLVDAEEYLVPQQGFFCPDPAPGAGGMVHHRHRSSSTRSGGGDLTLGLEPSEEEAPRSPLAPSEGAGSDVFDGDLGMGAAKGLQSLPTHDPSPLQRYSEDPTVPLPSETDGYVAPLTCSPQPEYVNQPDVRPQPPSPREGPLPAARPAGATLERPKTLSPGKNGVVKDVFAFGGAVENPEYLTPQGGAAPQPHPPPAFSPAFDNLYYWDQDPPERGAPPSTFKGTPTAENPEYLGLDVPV
Procedure: as §1
as §2, with “Ba/F3-EGFR-V769_D770 insASV, Ba/F3-EGFR-D770_N771 insNPG, Ba/F3-EGFR-N771_P772 insH, Ba/F3-EGFR-H773_V774 insNPH, Ba/F3-EGFR-D770_N771 insSVD C797S, Ba/F3-EGFR-E746_A750del C797S, Ba/F3-EGFR-L858R C797S, Ba/F3-EGFR L861Q and Ba/F3-ERBB2-A775_G776insYVMA” for “Ba/F3-EGFR-L858R, Ba/F3-EGFR-delLREA,”

[3] = tested on: Ba/F3-EGFR-E746_A750del C797S cells; assay: BA/F3 (EGFR E746_A750del C797S) proliferation, acquired resistance; conditions: Table 11, acquired resistance space
Procedure: as §1
as §2, with “Ba/F3-EGFR-V769_D770 insASV, Ba/F3-EGFR-D770_N771 insNPG, Ba/F3-EGFR-N771_P772 insH, Ba/F3-EGFR-H773_V774 insNPH, Ba/F3-EGFR-D770_N771 insSVD C797S, Ba/F3-EGFR-E746_A750del C797S, Ba/F3-EGFR-L858R C797S, Ba/F3-EGFR L861Q and Ba/F3-ERBB2-A775_G776insYVMA” for “Ba/F3-EGFR-L858R, Ba/F3-EGFR-delLREA,”

[4] = biological target: Ba/F3-EGFR-V769_D770 insASV cells (Homo sapiens, UniProt P00533, DUP767-769, cells depend on it); assay: BA/F3 (ASV) proliferation, EGFR Exon20 insertion mutation; conditions: Table 9; EGFR Exon20 insertion mutations; read-out: BA/F3 (ASV) IC50
Procedure: as §1
as §2, with “Ba/F3-EGFR-V769_D770 insASV, Ba/F3-EGFR-D770_N771 insNPG, Ba/F3-EGFR-N771_P772 insH, Ba/F3-EGFR-H773_V774 insNPH, Ba/F3-EGFR-D770_N771 insSVD C797S, Ba/F3-EGFR-E746_A750del C797S, Ba/F3-EGFR-L858R C797S, Ba/F3-EGFR L861Q and Ba/F3-ERBB2-A775_G776insYVMA” for “Ba/F3-EGFR-L858R, Ba/F3-EGFR-delLREA,”

Ba/F3-EGFR L861Q cells = assay: BA/F3 (EGFR L861Q) proliferation, uncommon EGFR mutation; conditions: Table 10, classical activating and uncommon EGFR mutations
Procedure: as §1
as §2, with “Ba/F3-EGFR-V769_D770 insASV, Ba/F3-EGFR-D770_N771 insNPG, Ba/F3-EGFR-N771_P772 insH, Ba/F3-EGFR-H773_V774 insNPH, Ba/F3-EGFR-D770_N771 insSVD C797S, Ba/F3-EGFR-E746_A750del C797S, Ba/F3-EGFR-L858R C797S, Ba/F3-EGFR L861Q and Ba/F3-ERBB2-A775_G776insYVMA” for “Ba/F3-EGFR-L858R, Ba/F3-EGFR-delLREA,”

[5] = tested on: Ba/F3-EGFR-L858R C797S cells; assay: BA/F3 (EGFR L858R C797S) proliferation, acquired resistance; conditions: Table 11, acquired resistance space
Procedure: as §1
as §2, with “Ba/F3-EGFR-V769_D770 insASV, Ba/F3-EGFR-D770_N771 insNPG, Ba/F3-EGFR-N771_P772 insH, Ba/F3-EGFR-H773_V774 insNPH, Ba/F3-EGFR-D770_N771 insSVD C797S, Ba/F3-EGFR-E746_A750del C797S, Ba/F3-EGFR-L858R C797S, Ba/F3-EGFR L861Q and Ba/F3-ERBB2-A775_G776insYVMA” for “Ba/F3-EGFR-L858R, Ba/F3-EGFR-delLREA,”

Ba/F3-EGFR-L858R cells = Ba/F3-EGFR-L858R cells (Homo sapiens, UniProt P00533, L858R, cells depend on it); assay: BA/F3 EGFR L858R cell survival assay, Cell Titer-Glo; conditions: read-out: BA/F3 (EGFR L858R) IC50
Ba/F3-EGFR-L858R cells, sequence (P00533 whole entry L858R): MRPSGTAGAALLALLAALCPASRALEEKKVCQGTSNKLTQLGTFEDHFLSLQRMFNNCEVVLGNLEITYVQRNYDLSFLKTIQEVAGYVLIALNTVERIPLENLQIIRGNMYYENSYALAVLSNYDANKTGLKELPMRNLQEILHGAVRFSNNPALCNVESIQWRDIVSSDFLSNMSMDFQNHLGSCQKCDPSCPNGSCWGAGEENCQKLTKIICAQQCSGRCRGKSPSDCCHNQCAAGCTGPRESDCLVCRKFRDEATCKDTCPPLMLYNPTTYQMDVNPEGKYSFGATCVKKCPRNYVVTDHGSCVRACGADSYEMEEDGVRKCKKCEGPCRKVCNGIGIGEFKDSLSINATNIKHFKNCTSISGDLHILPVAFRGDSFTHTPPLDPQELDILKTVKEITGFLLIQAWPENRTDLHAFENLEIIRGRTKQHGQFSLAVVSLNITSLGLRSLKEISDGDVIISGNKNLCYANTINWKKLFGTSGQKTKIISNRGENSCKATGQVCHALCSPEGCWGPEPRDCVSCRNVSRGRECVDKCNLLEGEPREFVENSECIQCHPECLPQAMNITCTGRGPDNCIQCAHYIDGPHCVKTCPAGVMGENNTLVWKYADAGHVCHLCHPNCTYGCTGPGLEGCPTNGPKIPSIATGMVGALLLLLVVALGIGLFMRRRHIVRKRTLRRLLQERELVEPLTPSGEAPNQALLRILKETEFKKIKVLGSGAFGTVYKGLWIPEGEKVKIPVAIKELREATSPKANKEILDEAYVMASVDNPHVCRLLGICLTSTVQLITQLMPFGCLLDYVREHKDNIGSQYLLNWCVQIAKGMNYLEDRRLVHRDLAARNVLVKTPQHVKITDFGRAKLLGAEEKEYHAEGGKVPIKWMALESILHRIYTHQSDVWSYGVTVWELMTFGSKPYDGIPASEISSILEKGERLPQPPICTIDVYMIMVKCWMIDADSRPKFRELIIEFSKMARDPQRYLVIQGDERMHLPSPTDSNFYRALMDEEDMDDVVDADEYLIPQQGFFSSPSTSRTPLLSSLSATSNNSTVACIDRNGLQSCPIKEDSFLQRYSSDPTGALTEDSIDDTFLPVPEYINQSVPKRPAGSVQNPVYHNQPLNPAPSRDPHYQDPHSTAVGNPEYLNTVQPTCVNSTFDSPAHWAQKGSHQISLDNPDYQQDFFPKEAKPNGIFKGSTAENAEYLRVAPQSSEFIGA
Procedure: as §1, §2, §3, §4, §5

[6] = biological target: Ba/F3-EGFR-WT cells (BA/F3 wild type EGFR) (Homo sapiens, UniProt P00533); assay: BA/F3 (wild type) proliferation assay, Cell Titer-Glo; conditions: Table 7; plated with 10 ng/mL EGF, without IL-3, 48 h; read-out: BA/F3 (wild type) IC50
Ba/F3-EGFR-WT cells (BA/F3 wild type EGFR), sequence (P00533 whole entry, change not shown): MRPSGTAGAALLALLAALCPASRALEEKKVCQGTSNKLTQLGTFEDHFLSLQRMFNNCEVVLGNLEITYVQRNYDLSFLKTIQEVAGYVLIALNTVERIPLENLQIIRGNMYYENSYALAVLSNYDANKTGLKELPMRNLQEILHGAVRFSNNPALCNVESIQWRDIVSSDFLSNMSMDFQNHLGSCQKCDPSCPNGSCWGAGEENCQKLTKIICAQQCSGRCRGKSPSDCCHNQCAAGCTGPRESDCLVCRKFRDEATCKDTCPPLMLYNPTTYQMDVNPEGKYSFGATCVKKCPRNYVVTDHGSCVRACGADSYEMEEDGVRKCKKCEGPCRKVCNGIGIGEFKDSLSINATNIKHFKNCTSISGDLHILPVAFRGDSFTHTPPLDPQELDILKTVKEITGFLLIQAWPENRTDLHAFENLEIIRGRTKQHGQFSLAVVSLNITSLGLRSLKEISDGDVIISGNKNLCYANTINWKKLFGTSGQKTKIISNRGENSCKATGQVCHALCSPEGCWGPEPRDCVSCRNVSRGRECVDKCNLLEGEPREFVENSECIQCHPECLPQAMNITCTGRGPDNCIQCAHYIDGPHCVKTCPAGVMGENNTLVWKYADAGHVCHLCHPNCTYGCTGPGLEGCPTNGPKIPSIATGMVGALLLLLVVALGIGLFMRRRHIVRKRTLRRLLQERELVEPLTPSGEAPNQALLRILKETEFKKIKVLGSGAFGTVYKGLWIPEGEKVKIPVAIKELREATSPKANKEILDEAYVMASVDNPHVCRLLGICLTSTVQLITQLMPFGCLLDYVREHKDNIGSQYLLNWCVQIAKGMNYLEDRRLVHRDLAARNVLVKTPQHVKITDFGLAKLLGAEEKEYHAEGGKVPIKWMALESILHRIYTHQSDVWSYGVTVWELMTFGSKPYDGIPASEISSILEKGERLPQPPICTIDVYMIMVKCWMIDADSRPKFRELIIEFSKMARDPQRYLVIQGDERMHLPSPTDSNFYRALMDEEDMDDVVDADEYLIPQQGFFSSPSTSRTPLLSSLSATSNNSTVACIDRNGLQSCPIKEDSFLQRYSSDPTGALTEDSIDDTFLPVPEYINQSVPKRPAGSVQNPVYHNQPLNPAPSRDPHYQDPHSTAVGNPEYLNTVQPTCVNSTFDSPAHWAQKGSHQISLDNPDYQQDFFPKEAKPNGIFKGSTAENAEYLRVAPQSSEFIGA
Procedure: as §1
as §2, with “Ba/F3-EGFR-WT.” for “Ba/F3-EGFR-L858R, Ba/F3-EGFR-delLREA, (Ba/F3-vector-control).”
For cell survival assays, Ba/F3 cells were grown to a density of 1-2 million cells per mL, spun down and resuspended in media without IL-3, and replated at a concentration 200,000-500,000 cells per mL. The cells ectopically expressing WT EGFR were plated with 10 ng/mL Millipore Culture grade EGF.
24 hours later, cells were plated in 30 μL in a 384 well plate at a concentration of 3200 cells per well for cells assayed in the absence of IL-3. 100 nL of compound was added to each well using a 100 nL pin head, and plates were incubated at 37° C. for 48 h.
as §5, with “30” for “20”, “Reagent.” for “Reagent diluted 1:3 in PBS.”

[7] = tested on: Ba/F3-EGFR-D770_N771 insSVD C797S cells; assay: BA/F3 (EGFR D770_N771 insSVD C797S) proliferation, acquired resistance; conditions: Ba/F3 EGFR-D770-N771ins_SVD; Table 11; acquired resistance space
Procedure: as §1
as §2, with “Ba/F3-EGFR-V769_D770 insASV, Ba/F3-EGFR-D770_N771 insNPG, Ba/F3-EGFR-N771_P772 insH, Ba/F3-EGFR-H773_V774 insNPH, Ba/F3-EGFR-D770_N771 insSVD C797S, Ba/F3-EGFR-E746_A750del C797S, Ba/F3-EGFR-L858R C797S, Ba/F3-EGFR L861Q and Ba/F3-ERBB2-A775_G776insYVMA” for “Ba/F3-EGFR-L858R, Ba/F3-EGFR-delLREA,”

[8] = biological target: Ba/F3-EGFR-D770_N771 insNPG cells (Homo sapiens, UniProt P00533, INS772GNP, cells depend on it); assay: BA/F3 (insNPG) proliferation, EGFR Exon20 insertion mutation; conditions: Table 9; EGFR Exon20 insertion mutations; read-out: BA/F3 (insNPG) IC50
Ba/F3-EGFR-D770_N771 insNPG cells, sequence (P00533 with tags, fused parts or gaps INS772GNP): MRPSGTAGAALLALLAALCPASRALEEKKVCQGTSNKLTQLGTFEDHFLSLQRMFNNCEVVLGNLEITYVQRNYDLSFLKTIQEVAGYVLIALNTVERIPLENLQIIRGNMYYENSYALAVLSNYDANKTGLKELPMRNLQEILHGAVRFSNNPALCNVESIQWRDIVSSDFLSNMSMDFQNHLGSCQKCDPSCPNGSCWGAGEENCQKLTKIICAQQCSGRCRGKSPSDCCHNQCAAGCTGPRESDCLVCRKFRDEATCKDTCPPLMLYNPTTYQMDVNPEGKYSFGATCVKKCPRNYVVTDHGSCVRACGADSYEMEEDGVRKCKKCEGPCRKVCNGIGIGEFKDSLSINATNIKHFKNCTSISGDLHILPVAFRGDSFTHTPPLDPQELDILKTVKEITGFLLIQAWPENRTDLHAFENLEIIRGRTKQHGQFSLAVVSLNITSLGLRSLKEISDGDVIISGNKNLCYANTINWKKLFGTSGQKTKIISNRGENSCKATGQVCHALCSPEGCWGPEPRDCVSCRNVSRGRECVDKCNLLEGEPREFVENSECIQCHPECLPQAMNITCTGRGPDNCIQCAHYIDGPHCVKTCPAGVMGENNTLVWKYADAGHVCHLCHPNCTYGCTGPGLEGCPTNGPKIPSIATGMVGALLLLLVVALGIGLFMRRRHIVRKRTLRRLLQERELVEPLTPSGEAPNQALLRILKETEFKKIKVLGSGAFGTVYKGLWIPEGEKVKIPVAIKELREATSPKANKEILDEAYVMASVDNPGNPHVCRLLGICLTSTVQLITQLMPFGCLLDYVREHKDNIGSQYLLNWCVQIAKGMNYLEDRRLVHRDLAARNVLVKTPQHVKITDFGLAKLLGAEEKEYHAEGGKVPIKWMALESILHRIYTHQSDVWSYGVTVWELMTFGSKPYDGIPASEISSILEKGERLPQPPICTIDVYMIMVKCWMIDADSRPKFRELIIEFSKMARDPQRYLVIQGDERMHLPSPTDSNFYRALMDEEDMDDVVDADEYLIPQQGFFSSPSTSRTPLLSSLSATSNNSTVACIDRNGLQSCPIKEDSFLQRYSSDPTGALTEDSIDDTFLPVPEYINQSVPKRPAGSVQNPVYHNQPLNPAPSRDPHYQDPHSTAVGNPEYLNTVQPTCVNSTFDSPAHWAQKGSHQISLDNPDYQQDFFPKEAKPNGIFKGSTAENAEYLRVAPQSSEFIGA
Procedure: as §1
as §2, with “Ba/F3-EGFR-V769_D770 insASV, Ba/F3-EGFR-D770_N771 insNPG, Ba/F3-EGFR-N771_P772 insH, Ba/F3-EGFR-H773_V774 insNPH, Ba/F3-EGFR-D770_N771 insSVD C797S, Ba/F3-EGFR-E746_A750del C797S, Ba/F3-EGFR-L858R C797S, Ba/F3-EGFR L861Q and Ba/F3-ERBB2-A775_G776insYVMA” for “Ba/F3-EGFR-L858R, Ba/F3-EGFR-delLREA,”

GI50 [2]: 17.1 nM | IC50 [3]: 0.292 nM | GI50 [4]: 15.3 nM | IC50 (Ba/F3-EGFR L861Q cells): 25.7 nM | IC50 [5]: 1.16 nM | GI50 [6]: 397 nM | IC50 [7]: 16.6 nM | GI50 [8]: 12.8 nM
Structure (SMILES): COc1c(F)cccc1Nc1c(-c2ccncc2OCC(C)(C)OC)[nH]c2c1C(=O)NCC2 [Example 17, 3-[(3-fluoro-2-methoxyphenyl)amino]-2-[3-(2-methoxy-2-methylpropoxy)pyridin-4-yl]-1,5,6,7-tetrahydro-4H-pyrrolo[3,2-c]pyridin-4-one]
IC50 ([1]; Table 8, without IL-3, 48 h, read-out: BA/F3 (EGFR del19/delREA (746-750) IC50)): 0.13 nM | IC50 ([1]; Table 10, classical activating and uncommon EGFR mutations, read-out: BA/F3 (EGFR E746_A750del) IC50): 0.575 nM | GI50 (Ba/F3-EGFR-L858R cells; Table 8, without IL-3, 48 h): 1.2 nM | GI50 (Ba/F3-EGFR-L858R cells; Table 10, classical activating and uncommon EGFR mutations): 1.49 nM
